# Entries after “also recorded” stand apart in the source; their conditions may differ. Counter-ions that a name gives are not always drawn. Like-named read-outs stand apart in the source and are kept apart here.
# Tests used:
# [1] = target: alpha7 receptor (high affinity alpha-bungarotoxin binding, rat brain membranes) (Rattus norvegicus, UniProt Q05941); test: biochemical
# [2] = target: T1, rat alpha7 receptor (Rattus norvegicus, UniProt Q05941); test: cell-based
# Method: FIG. 13A. Effects of chronic injections of DMXB or nicotine on high affinity [^3 H]ACh or [^125 I]α-bungarotoxin (BTX) binding in rat neocortices. Adult male rats were injected with saline vehicle, 1 mg/kg DMXB or 0.2 mg/kg nicotine (NIC) (IP) daily for 2 weeks. At that time, neocortices were removed and assayed for high affinity [^3 H]ACh or [^125 I]α-bungarotoxin binding as described in the text. […] Responses of rat α7 ACHR to 3-CA, 2-MeOCA and 4-MeOCA. Concentration-response relationships for the peak agonist activated currents of oocytes injected with RNA coding for the rat α7 subunit. All responses were initially measured relative to the individual oocyte-response to 500 μM ACh, applied 5 min prior to drug-application. Responses were normalized relative to the maximum response obtainable with ACh so that a response of 1 represents full efficacy. The ratio of 500 μM ACh control response to ACh maximum was taken from Papke et al., 1997.
# (§1) Oocytes were prepared and recordings made as described previously (de Fiebre, et al., 1995). Frogs were anesthetized by submersion in 0.1% (3)-aminobenzoic acid ethyl ester and several lobes of the ovary surgically removed through a small incision in the abdomen wall. Oocytes were freed from the follicle cells by treatment with collagenase (in calcium-free Barth's solution: 88 mM NaCl, 1 mM KCl, 15 mM Hepes pH 7.6, 0.33 mM MgSO4, 0.1 mg/ml gentamicin sulfate) for 2 hr at room temperature and Stage 5 oocytes were isolated. Oocytes were rinsed and stored at 18° C. in Barth's saline (88 mM NaCl, 1 mM KCl, 15 mM Hepes pH 7.6, 0.3 mM Ca(NO3)2, 0.41 mM CaCl2, 0.82 mM MgSO4, 0.1 mg/ml gentamicin sulfate) before and after microinjection with RNA. Microinjection was conducted with a Drummond Scientific "Nanoject Variable" automatic injector. Oocytes were injected with a 50 nl solution of specified rat nicotinic subunit mRNA species (2-10 mg/ml; derived from the cDNA containing HIP 306 plasmid kindly provided by Dr. Jim Boulter, Salk Institute) and incubated 2-7 days at 18° C. before electrophysiological recording. electrophysiological recordings, oocytes were perfused in a Warner Instruments RC-8 recording chamber with a perfusion solution containing 115 mM NaCl, 2.5 mM KCl, 10 mM Hepes pH 7.2, 1.8 mM CaCl2 and 1 μM atropine to block muscarinic responses. Perfusion was continuous at a rate of 10 ml/min. Drags were diluted in perfusion solution and applied using a solenoid valve to switch from perfusion to drug solutions. Current responses to drug administration were studied under two electrode voltage clamp at a holding potential of -70 mV using a Dagan Corp. TEV-200 voltage clamp connected to a 386-SX IBM computer using a TL-1 DMA interface (Axon Instruments). Micropipettes were filled with 3 M KCl and had resistances of 0.5-2 MOhms. Drug responses are analyzed with PClamp software (Axon Instruments). Oocytes with resting potentials of less than -30 mV were rejected.
# [3] = target: rat alpha4beta2 receptor (Rattus norvegicus, UniProt P09483+P12390); test: Activation of alpha4beta2 receptors expressed in Xenopus oocytes; type: cell-based; conditions: for Emax: read-out: alpha4beta2 activation: response compared to maximal acetylcholine
# Method: FIG. 14A. Responses of α4β2 ACHR to 3-CA, 2-MeOCA or 4-MeOCA. Concentration-response relationships for the peak agonist activated currents of oocytes injected with RNA coding for rat α4β2 subunits. Responses are first expressed relative to the response to 10 μM ACh, applied 5 min before drug-application, then normalized to the maximum response obtainable with ACh so that a response of 1 represents full efficacy. The ratio between 10 μM ACh and maximum ACh response was determined in separate experiments.
# as §1
# [4] = target: T1, rat alpha7 receptor; test: cell-based; set-up: Oocytes Antagonist: unit not given here
# Method: FIG. 13B. Effects of chronic injections of DMXB or nicotine on high affinity [^3 H]ACh or [^125 I]α-bungarotoxin (BTX) binding in rat neocortices. Adult male rats were injected with saline vehicle, 1 mg/kg DMXB or 0.2 mg/kg nicotine (NIC) (IP) daily for 2 weeks. At that time, neocortices were removed and assayed for high affinity [^3 H]ACh or [^125 I]α-bungarotoxin binding as described in the text. […] Responses of rat α7 AChR to 3-CA, 2-MeOCA and 4-MeOCA. […] All responses are expressed relative to the oocyte-response to 500 μM ACh applied 5 min prior to the experimental agonist application.
# as §1
# Antagonist properties subsequent to agonist activity were measured as a decrease in responsiveness to ACh applied 5 min after compound-application, normalized to ACh application instead of the anabaseine-derivative (FIG. 13A AND FIG. 13B).
# [5] = test system: rat primary neocortical neurons; type: cell-based
# [6] = test system: rat; test: Focal ischemia infarct size in rats; type: in vivo; conditions: 0.5 mg/kg IP mecamylamine with DMXB
# Method: FIG. 3. […] Rats received a 30 minute ischemia attack through tying of their common carotid; the amount of cell death (proportional to Infarct Size) was determined 24 hours later. Some animals received the benzylidene-anabaseine compound DMXB (1 mg/kg IP, salt weight) 1 hour before ligation, or the nicotinic antagonist mecamylamine (0.5 mg/kg IP), or both mecamylamine and DMXB, or DMXB 5 minutes after the ligation.
# Male Sprague Dawley albino male rats (250-300 g) were anesthetized with a subcutaneous injection of ketamine, xylazine, and acepromazine (3:3:1 mixture, 0.7 cc/kg). Atropine (0.4 mg/kg IP) was injected several min prior to dissection of the carotid artery from the vagus. The internal carotid artery (ICA) was dissected until its proximal bifurcation into the terminal ICA and pterygopalatine arteries were clearly defined. The pterygopalatine artery was clipped parallel to and flush with the terminal ICA. Another clip was applied to the common carotid artery (CCA). The distal aspect of the external carotid artery (ECA) was coagulated and a straight aneurysm clip was applied 4 mm distal to the proximal ICA bifurcation. A suture was passed through the arteriotomized ECA stump into the ICA until the tip was resting against the aneurysm clip. The suture was removed 30 min later, with body temperature maintained between 36.5-37.5° C. The ECA stump was coagulated with bipolar electrocautery. Clips were removed and the wound was irrigated with saline prior to suturing.
# Rats were euthanised 24 hours post-infarction and their brains removed and sectioned coronally (2 mm). Sections were placed into a 2% solution of 2,3,5-triphyenyl-tetrazolium cholide (Sigma Chemical Co., St. Louis. Mo.) for 20 minutes at 37° C. The sections were removed to a petri dish and covered with 10% formaldehyde solution. The outline function of the NIH Image computer program (version 1.47) was used to estimate the infarcted and total brain areas for each section. Infarct size was calculated as percent of total brain area.
# [7] = test system: PC12 cells; type: cell-based; conditions: 10 μM (NGF 100 ng/ml); 4 days after removal of serum and NGF; mean±SEM; * p<0.05
# Method: PC12 cell-culture methods were modified from Greene and Tischler (1976). Cells were plated at 30-40% confluence and grown in Dulbecco's Modified Eagle Medium containing 10% heat-inactivated horse serum, 5% fetal bovine serum, 100 units/ml penicillin, 100 μg/ml streptomycin and 0.5 mM 1-glutamine. Cultures were maintained at 37° C., […] /6% CO2 and 90-92% humidity in culture plates pre-coated with poly-1lysine (10 g/L). Cultures were maintained for 7 days in serum-supplemented medium to which 100 ng/ml rat 2.5S NGF was added at day 1. On day 7, conditioned medium was replaced serum-free medium containing specified drugs. Four days later, cell density was estimated using the NIH Image program version 1.47 and number of neurite-expressing cells counted manually in blind fashion as described previously (Martin et al., 1994). A Nikon inverted microscope (100× magnification) was attached to a Mac II computer via a monochrome video camera (Cohu, Inc., San Diego, Calif.). Four random areas were counted per plate and there were 4 plates per treatment group, unless otherwise indicated. Neurites were defined as processes at least 2× the length of the perikaryon. To assess the reliability of the image analyses, a reticle was used for direct quantification of cells in the same view as the one analyzed in random samples.
# PC12 cells were differentiated for 1 week with NGF. Drugs were administered for the 4 day interval after removal of serum and NGF. Neuites were counted and expressed as the mean±SEM of at least 3 plates/group.
# [8] = Table 4, read-out: Receptor Binding α7
# [9] = read-out: alpha7 activation: response, normalized to 500 μM acetylcholine (maximum response)
# [10] = read-out: alpha7 binding: % Inhibition of high affinity alphabungarotoxin binding (1 nM)
# alpha7 receptor (high affinity alpha-bungarotoxin binding, rat brain membranes), sequence (Q05941 23-502): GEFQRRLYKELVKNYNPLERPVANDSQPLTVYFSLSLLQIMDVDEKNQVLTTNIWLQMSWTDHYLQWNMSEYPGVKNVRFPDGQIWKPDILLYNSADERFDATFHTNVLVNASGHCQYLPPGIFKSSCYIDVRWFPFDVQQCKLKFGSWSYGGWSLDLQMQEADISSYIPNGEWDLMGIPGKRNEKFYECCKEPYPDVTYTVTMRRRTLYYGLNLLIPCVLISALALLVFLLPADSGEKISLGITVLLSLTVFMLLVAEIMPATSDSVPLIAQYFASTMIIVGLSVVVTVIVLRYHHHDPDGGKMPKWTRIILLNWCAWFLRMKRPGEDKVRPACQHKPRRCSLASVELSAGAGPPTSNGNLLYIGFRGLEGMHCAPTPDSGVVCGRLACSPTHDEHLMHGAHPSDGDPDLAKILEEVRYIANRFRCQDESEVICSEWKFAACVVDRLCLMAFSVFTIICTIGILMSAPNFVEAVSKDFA
# T1 sequence (Q05941 23-502): as above
# rat alpha4beta2 receptor, sequence (P09483 31-630): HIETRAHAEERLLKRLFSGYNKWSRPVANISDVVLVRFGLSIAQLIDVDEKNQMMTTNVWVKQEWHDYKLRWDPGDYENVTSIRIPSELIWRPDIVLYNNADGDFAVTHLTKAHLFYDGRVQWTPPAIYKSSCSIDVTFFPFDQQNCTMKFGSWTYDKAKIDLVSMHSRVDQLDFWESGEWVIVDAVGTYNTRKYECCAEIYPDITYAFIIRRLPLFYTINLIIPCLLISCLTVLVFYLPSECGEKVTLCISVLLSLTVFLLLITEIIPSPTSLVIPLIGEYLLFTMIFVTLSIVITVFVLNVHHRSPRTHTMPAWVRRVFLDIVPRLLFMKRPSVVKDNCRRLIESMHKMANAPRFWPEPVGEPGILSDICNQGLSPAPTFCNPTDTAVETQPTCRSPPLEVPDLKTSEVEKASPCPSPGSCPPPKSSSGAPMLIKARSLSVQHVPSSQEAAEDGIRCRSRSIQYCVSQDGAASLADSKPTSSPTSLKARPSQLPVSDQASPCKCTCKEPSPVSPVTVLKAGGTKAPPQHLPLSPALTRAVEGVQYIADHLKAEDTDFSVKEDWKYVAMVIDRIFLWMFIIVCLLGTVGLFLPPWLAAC
# rat alpha4beta2 receptor, sequence (P12390 25-500): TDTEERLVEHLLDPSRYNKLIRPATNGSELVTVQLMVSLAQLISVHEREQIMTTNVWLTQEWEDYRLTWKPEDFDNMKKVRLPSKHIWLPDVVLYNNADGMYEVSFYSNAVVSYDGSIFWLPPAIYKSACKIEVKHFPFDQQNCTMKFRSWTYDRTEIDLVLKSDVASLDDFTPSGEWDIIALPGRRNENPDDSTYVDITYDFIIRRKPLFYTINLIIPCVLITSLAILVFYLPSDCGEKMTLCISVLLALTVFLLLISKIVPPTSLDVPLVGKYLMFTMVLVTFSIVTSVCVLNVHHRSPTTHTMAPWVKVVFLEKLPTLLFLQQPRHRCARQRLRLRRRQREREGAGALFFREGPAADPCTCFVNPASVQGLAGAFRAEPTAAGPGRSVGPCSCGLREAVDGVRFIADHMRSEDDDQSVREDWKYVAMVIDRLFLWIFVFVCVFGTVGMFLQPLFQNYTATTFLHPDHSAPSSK
molecule,measurement,setting,value
COc1ccc(C=C2CCCNC2c2cccnc2)c(OC)c1 (centres unmarked) [3(4-dimethoxy-benzylidene)anabasine],inhibition at 1 µM,[1]; [8],9%
"COc1ccc(C=C2CCCN=C2c2cccnc2)cc1 [GTS-2, 3-(4-methoxybenzylidene)anabaseine]",Emax,[2]; [9],7%
same,Emax,[3],5%
"Oc1ccc(C=C2CCCN=C2c2cccnc2)cc1 [GTS-7, 3-(4-hydroxybenzylidene)anabaseine]",inhibition at 1 µM,[1]; [8],69.3%
same,inhibition at 1 µM,"[1]; concentration of 1 μM (Table 1), read-out: alpha7 binding: % Inhibition of high affinity alphabungarotoxin binding (1 nM)",69%
same,Emax,[2]; [9],31%
same,Emax,[3],2%
"Nc1ccc(C=C2CCCN=C2c2cccnc2)cc1 [GTS-13, 3-(4-aminobenzylidene)anabaseine]",inhibition at 1 µM,[1]; read-out: Receptor Binding α7,93%
same,inhibition at 1 µM,[1]; [10],93%
same,Emax,[2]; read-out: Oocytes Agonist α7,72%
same,Emax,[2]; [9],72%
same,Emax,[3],5%
same,Oocytes Antagonist,[4],.69
"COc1ccc(C=C2CCCN=C2c2cccnc2)c(O)c1 [GTS-51, 3-(2-hydroxy-4-methoxybenzylidene) anabaseine]",inhibition at 1 µM,[1]; [10],45%
same,Emax,[2]; read-out: Oocytes Agonist α7,29%
same,Emax,[2]; [9],29%
same,Emax,[3],1%
same,Oocytes Antagonist,[4],.26
"COc1cc(O)ccc1C=C1CCCN=C1c1cccnc1 [GTS-62, 3-(4-hydroxy-2-methoxybenzylidene)anabaseine]",inhibition at 1 µM,[1]; read-out: Receptor Binding α7,84%
same,inhibition at 1 µM,[1]; [10],84%
same,Emax,[2]; read-out: Oocytes Agonist α7,43%
same,Emax,[2]; [9],41%
same,Emax,[3],4%
same,Oocytes Antagonist,[4],.35
"COc1ccc(C(C)=C2CCCN=C2c2cccnc2)c(OC)c1 [GTS-80, 3-(2,4-dimethoxy-α-methyl-benzylidene)]",inhibition at 1 µM,[1]; [8],85%
"COc1cc(O)ccc1/C=C/C=C1\CCCN=C1c1cccnc1 [GTS-86, trans-3-(4-hydroxy-2-methoxycinnamylidene) anabaseine dihydrochloride]",inhibition at 1 µM,[1]; [8],90%
"COc1ccc(/C=C/C=C2\CCCN=C2c2cccnc2)c(OC)c1 [GTS-87, trans-3-(2,4-dimethoxycinnamylidene) anabaseine dihydrochloride]",inhibition at 1 µM,[1]; [8],76%
C[C@]12N[C@H](Cc3ccccc31)c1ccccc12 [MK-801],"protection against glutamate, concomitant (in words)","[5]; 10 μM, with 1 mM glutamate",blocking effect
"CN(C)CCCOc1ccc(C=C2CCCN=C2c2cccnc2)cc1 [compound 15, 3(4-dimethylaminopropoxy-benzylidene)anabaseine]",inhibition at 1 µM,[1]; [8],87%
same,Emax,"[2]; Table 4, read-out: Oocytes Agonist α7",3%
same,Oocytes Antagonist,[4]; Table 4,.02
C[N+](C)(C)CCCCCC[N+](C)(C)C [hexamethonium],antagonist effect on DMXB-induced neuroprotection (in words),[5]; against glutamate cytotoxicity,sensitive
"CNC1(C)C2CCC(C2)C1(C)C (centres unmarked) [mecamylamine, reference compound]",block of neuroprotective action of DMXB (in words),[6],blocked this neuroprotective action of DMXB; also recorded: blocking action
same,antagonist effect on DMXB-induced neuroprotection (in words),[5]; against glutamate cytotoxicity,sensitive
CCN1C[C@]2(COC(=O)c3ccccc3N3C(=O)C[C@H](C)C3=O)CC[C@H](OC)[C@@]34[C@@H]5C[C@H]6[C@H](OC)[C@@H]5[C@](O)(C[C@@H]6OC)[C@@](O)([C@@H](OC)[C@H]23)[C@@H]14 [methyllycaconitine],antagonist effect on DMXB-induced neuroprotection (in words),[5]; against glutamate cytotoxicity,sensitive
CN1CCCC1c1cccnc1 (centres unmarked) [nicotine],protection by nicotine (in words),[5],protected against neuronal loss
"(7'-methyl-3-(2,4-dimethoxybenzylidene)) anabaseine [7'-methyl-DMXB]","alpha7 activation: response, normalized to 500 μM acetylcholine (maximum response)",[2],0.32
same,alpha4beta2 activation: response compared to maximal acetylcholine,[3]; xenopus oocytes,0.02
"NGF: nerve growth factor, 100 ng/ml (rat 2.5S NGF)",Neurite Counts,[7],342 ± 56
α-bungarotoxin [reference compound],Kd,"[1]; read-out: Kd, Scatchard analysis (r=0.98; single site model)",1.9 nM
same,antagonist effect on DMXB-induced neuroprotection (in words),[5],sensitive

# Reference: patent publication US5977144A (priority 1997, dated 1999)
